Source: patent US20170217976A1, “6-(AMINO ACID)-MORPHINAN DERIVATIVES IN COMBINATION WITH PERMEATION […] FOR USE AS AN ORALLY, […], TRA[…] NASALLY AD[…]” (C[…], priority 2014, published 2017)
Where two headings read alike, the source gives them in different places.

Key:
MOR = target: T1, MOR (Rattus norvegicus, UniProt P33535); test: Opioid receptor binding, MOR, rat brain membranes
T1 construct: from tissue

KOR = target: T2, KOR (Cavia porcellus, UniProt P41144); test: Opioid receptor binding, KOR, guinea pig brain membranes
T2 construct: from tissue

[1] = target: T3, human MOP expressed in CHO cells (Homo sapiens, UniProt P35372); test: [35S]GTPγS binding, antagonism at MOR (Ke against DAMGO); type: biochemical; conditions: for Kb: Table 1-6, antagonist Ke measured against DAMGO
T3 construct: expressed in transfected cells; host or cells: CHO cells (per the unit's head)

DOR = target: T4, DOR (Rattus norvegicus, UniProt P33533); test: Opioid receptor binding, DOR, rat brain membranes
T4 construct: from tissue

human MOR = target: T5, human MOR (Homo sapiens, UniProt P35372); test: biochemical; type: biochemical; conditions: for Emax: read-out: [35S]GTPγS binding, MOR % stim.
T5 construct: expressed in transfected cells; host or cells: CHO cells
Experimental: A number of compounds were evaluated for agonist potency and efficacy at the MOR using the [^35S]GTPγS functional assay in CHO cells expressing human MOR receptors.

[2] = Binding Ki MOR, Table 1-6, rat brain membranes
[3] = Binding Ki MOR, Table 2-6, rat brain membranes
[4] = Binding Ki KOR, Table 1-6, guinea pig brain membranes
[5] = Binding Ki KOR, Table 2-6, guinea pig brain membranes
[6] = Binding Ki DOR, Table 1-6, rat brain membranes
[7] = Binding Ki DOR, Table 2-6, rat brain membranes
[8] = Binding Ki (nM) MOR, in vitro binding assay, rat brain membranes
[9] = Binding Ki MOR, Table 1-4, rat brain membranes
[10] = Binding Ki (nM) KOR, in vitro binding assay, guinea pig brain membranes
[11] = Binding Ki KOR, Table 1-4, guinea pig brain membranes
[12] = Binding Ki (nM) DOR, in vitro binding assay, rat brain membranes
[13] = Binding Ki DOR, Table 1-4, rat brain membranes
[14] = Table 1-4, human MOP expressed in CHO cells, read-out: [35S]GTPγS binding, MOR EC50
[15] = Table 1-4, measured against DAMGO
[16] = read-out: [35S]GTPγS binding, MOR Ke

T4 sequence (P33533 whole entry): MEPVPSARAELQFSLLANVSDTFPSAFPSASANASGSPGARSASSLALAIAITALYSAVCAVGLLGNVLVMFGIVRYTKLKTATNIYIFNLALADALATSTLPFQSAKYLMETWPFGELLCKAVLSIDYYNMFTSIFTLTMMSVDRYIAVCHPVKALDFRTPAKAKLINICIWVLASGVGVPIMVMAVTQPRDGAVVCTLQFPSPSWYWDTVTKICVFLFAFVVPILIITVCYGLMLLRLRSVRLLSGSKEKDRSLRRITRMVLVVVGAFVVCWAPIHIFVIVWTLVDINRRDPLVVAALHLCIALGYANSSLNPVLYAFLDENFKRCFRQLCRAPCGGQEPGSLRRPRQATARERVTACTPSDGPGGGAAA
T1 sequence (P33535 whole entry): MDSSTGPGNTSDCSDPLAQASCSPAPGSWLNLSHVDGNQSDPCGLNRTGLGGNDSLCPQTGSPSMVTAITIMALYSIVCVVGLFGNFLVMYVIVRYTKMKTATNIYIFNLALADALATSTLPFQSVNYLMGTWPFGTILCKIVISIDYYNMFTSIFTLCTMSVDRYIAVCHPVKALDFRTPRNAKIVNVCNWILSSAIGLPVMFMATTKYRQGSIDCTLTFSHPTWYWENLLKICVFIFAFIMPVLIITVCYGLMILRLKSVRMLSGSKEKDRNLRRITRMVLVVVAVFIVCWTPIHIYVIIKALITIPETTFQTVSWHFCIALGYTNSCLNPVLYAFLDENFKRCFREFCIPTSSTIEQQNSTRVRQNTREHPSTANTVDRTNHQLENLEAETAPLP
T2 sequence (P41144 whole entry): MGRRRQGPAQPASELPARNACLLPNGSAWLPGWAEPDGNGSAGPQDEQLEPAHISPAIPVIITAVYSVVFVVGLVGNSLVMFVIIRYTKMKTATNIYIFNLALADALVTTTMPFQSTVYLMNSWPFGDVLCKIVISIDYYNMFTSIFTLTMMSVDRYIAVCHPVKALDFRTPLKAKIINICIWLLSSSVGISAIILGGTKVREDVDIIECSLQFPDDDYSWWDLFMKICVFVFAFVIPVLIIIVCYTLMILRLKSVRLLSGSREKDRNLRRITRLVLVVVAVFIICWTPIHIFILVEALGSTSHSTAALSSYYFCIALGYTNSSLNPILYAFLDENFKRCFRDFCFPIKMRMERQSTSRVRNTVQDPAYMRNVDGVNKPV
T3 sequence (P35372 whole entry): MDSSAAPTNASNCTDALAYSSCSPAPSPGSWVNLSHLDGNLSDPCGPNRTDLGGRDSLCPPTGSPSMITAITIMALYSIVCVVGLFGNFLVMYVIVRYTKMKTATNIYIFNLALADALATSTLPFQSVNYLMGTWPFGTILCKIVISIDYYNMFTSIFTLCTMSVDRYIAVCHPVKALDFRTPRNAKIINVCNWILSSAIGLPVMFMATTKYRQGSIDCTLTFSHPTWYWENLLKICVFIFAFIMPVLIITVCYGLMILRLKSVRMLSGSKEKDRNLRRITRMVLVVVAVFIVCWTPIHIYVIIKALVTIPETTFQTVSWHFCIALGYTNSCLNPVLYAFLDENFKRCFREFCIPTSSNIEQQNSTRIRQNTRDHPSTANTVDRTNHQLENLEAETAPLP
T5 sequence (P35372 whole entry): as above

SMILES	Ki (MOR; [2]) [nM]	Ki (MOR; [3]) [nM]	Ki (KOR; [4]) [nM]	Ki (KOR; [5]) [nM]	EC50 [1] [nM]	Kb ([1]; [35S]GTPγS binding, MOR Ke) [nM]	Ki (DOR; [6]) [nM]	Ki (DOR; [7]) [nM]	Ki (MOR; [8]) [nM]	Ki (MOR; [9]) [nM]	Ki (KOR; [10]) [nM]	Ki (KOR; [11]) [nM]	Ki (DOR; [12]) [nM]	Ki (DOR; [13]) [nM]	other results
CCO[C@@]12CCC(=O)[C@@H]3Oc4c(O)ccc5c4[C@@]31CCN(CC1CC1)[C@@H]2C5 [Compound 14-OEt-NTX, 14-O-Ethylnaltrexone, reference compound]	0.35	0.35	0.93	0.93	> 10000	0.31	4.13	4.13							
CO[C@@]12CC[C@H](NCC(=O)O)[C@@H]3Oc4c(O)ccc5c4[C@@]31CCN(CC1CC1)[C@@H]2C5 [Compound 61]	0.68	0.68	4.65	4.65	> 10000	0.63	5.15	5.15							
CO[C@@]12CCC(=O)[C@@H]3Oc4c(O)ccc5c4[C@@]31CCN(CC1CC1)[C@@H]2C5 [Compound 14-OMe-NTX, 14-O-Methylnaltrexone, reference compound]	0.46	0.46	1.17	1.17	> 10000	0.49	7.88	7.88							
CO[C@@]12CC[C@H](N[C@@H](CO)C(=O)O)[C@@H]3Oc4c(O)ccc5c4[C@@]31CCN(C)[C@@H]2C5 [Compound 36]									2.21	2.21	196	196	5.32	5.32	EC50 (human MOR): 1.21 nM; Emax (human MOR): 96%
CO[C@@]12CC[C@@H](N[C@@H](Cc3c[nH]c4ccccc34)C(=O)O)[C@@H]3Oc4c(O)ccc5c4[C@@]31CCN(C)[C@@H]2C5 [Compound 46]									0.65	0.65	8.66	8.66	1.19	1.19	EC50 (human MOR; [14]): 0.61 nM; Emax (human MOR; [15]): 112%
CO[C@@]12CC[C@@H](NCC(=O)O)[C@@H]3Oc4c(O)ccc5c4[C@@]31CCN(CC1CC1)[C@@H]2C5 [Compound 62]	1.31	1.31	9.31	9.31	> 10000	0.19	4.76	4.76							
CO[C@@]12CC[C@@H](NCCCC(=O)O)[C@@H]3Oc4c(O)ccc5c4[C@@]31CCN(CC1CC1)[C@@H]2C5 [Compound 66]	3.36	3.36	16.8	16.8	> 10000		10.2	10.2							Kb [1, 16]: 1.06 nM
CO[C@@]12CC[C@H](N[C@@H](Cc3ccccc3)C(=O)O)[C@@H]3Oc4c(O)ccc5c4[C@@]31CCN(C)[C@@H]2C5 [Compound 3]															EC50 (human MOR; [14]): 0.03 nM; Emax (human MOR; [15]): 116%
CO[C@@]12CC[C@H](N[C@@H](CC(N)=O)C(=O)O)[C@@H]3Oc4c(O)ccc5c4[C@@]31CCN(C)[C@@H]2C5 [Compound 26]									1.17	1.17	74	74	3.37	3.37	EC50 (human MOR; [14]): 0.64 nM; Emax (human MOR; [15]): 109%
CO[C@@]12CC[C@@H](NCCC(=O)O)[C@@H]3Oc4c(O)ccc5c4[C@@]31CCN(CC1CC1)[C@@H]2C5 [Compound 64]	1.51	1.51	11.7	11.7	> 10000	0.96	8.12	8.12							
CO[C@@]12CC[C@@H](N[C@@H](CO)C(=O)O)[C@@H]3Oc4c(O)ccc5c4[C@@]31CCN(C)[C@@H]2C5 [Compound 37]									2.14	2.14	152	152	5.29	5.29	EC50 (human MOR; [14]): 3.24 nM
O=C(O)C(Cc1ccccc1)NC1CCC2(O)C3Cc4ccc(O)c5c4C2(CCN3CC2CC2)C1O5 (single isomer, unassigned) [Compound 60]	1.83	1.83	8.99	8.99		0.24	2.79	2.79							EC50 ([1]; read-out: [35S]GTPγS binding, MOR EC50, Table 1-6, stimulation of [35S]GTPγS binding): > 10000 nM
O=C(O)C(Cc1ccccc1)NC1CCC2(O)C3Cc4ccc(O)c5c4C2(CCN3CC2CC2)C1O5 (single isomer, unassigned) [Compound 59]	1.41	1.41	2.65	2.65	> 10000	0.25	3.53	3.53							
CO[C@@]12CC[C@H](N[C@@H](CCC(=O)O)C(=O)O)[C@@H]3Oc4c(O)ccc5c4[C@@]31CCN(C)[C@@H]2C5 [Compound 19]															EC50 (human MOR; [14]): 1.61 nM
CO[C@@]12CC[C@H](NCCCC(=O)O)[C@@H]3Oc4c(O)ccc5c4[C@@]31CCN(CC1CC1)[C@@H]2C5 [Compound 65]	1.21	1.21	5.31	5.31	> 10000		10.7	10.7							Kb [1, 16]: 0.94 nM
CO[C@@]12CC[C@H](NCCC(=O)O)[C@@H]3Oc4c(O)ccc5c4[C@@]31CCN(CC1CC1)[C@@H]2C5 [Compound 63]	1.35	1.35	7.81	7.81	> 10000	0.27	6.25	6.25							
CO[C@@]12CC[C@H](N[C@@H](Cc3ccccc3)C(=O)OC(C)(C)C)[C@@H]3Oc4c(O)ccc5c4[C@@]31CCN(CC1CC1)[C@@H]2C5 [57-tBu ester]		0.68		1.78				0.58							
COC12CCC(NCCC(=O)O)C3Oc4c(O)ccc5c4C31CCN(C)C2C5 (single isomer, unassigned) [Compound 22]									1.04	1.04	71.4	71.4	13.9	13.9	
CN1CC[C@]23c4c5ccc(O)c4O[C@H]2[C@@H](N[C@@H](Cc2ccccc2)C(=O)O)CC[C@@]3(O)[C@H]1C5 [Compound 11]										2.3		344		19	
CCO[C@@]12CC[C@H](N[C@@H](Cc3ccccc3)C(=O)OC(C)(C)C)[C@@H]3Oc4c(O)ccc5c4[C@@]31CCN(CC1CC1)[C@@H]2C5 [55-tBu ester]		0.63		4.12				2.38							
CO[C@@]12CC[C@@H](N[C@@H](C)C(=O)OC(C)(C)C)[C@@H]3Oc4c(O)ccc5c4[C@@]31CCN(C)[C@@H]2C5 [2-t-Bu ester]									1.13		93.6		1.36		
CCOC(=O)CNC1CCC2(OCCCc3ccccc3)C3Cc4ccc(O)c5c4C2(CCN3C)C1O5 (stereo not drawn) [7-Et ester]															Ki (MOR; in vitro binding assay, rat brain membranes, read-out: Binding Ki (nM) MOR): 0.43 nM; Ki (KOR; in vitro binding assay, guinea pig brain membranes, read-out: Binding Ki (nM) KOR): 0.44 nM; Ki (DOR; in vitro binding assay, rat brain membranes, read-out: Binding Ki (nM) DOR): 0.25 nM
COC12CCC(NC(C(=O)O)C(C)C)C3Oc4c(O)ccc5c4C31CCN(C)C2C5 (single isomer, unassigned) [Compound 28]									3.16	3.16	325	325	3.91	3.91	
